Assay results as given in patent US10072023B2, “Diarylethene compounds and uses thereof” (SWITCH MATERIALS, INC., priority 2011, dated 2018).

Experiment: Absorbance at photostationary state (PSS) under simulated sunlight or 365 nm light
Type: physicochemical
Set-up: λ max: unit not given here
Settings: for Absorbance at PSS, 365 nm: 365 nm light source; for Absorbance at PSS, 365 nm / Absorbance at PSS, full / Absorbance at PSS, +UV / λ max: 2.0×10^−5 M in triglyme; for sensitivity index: ratio of PSS under 365 nm light to PSS under full spectrum light (without UV blocking film); for Absorbance at PSS, full: simulated sunlight (QSUN solar simulator), no UV blocking film; for Absorbance at PSS, +UV: simulated sunlight with UV blocking film (cutoff 370 nm); for λ max: wavelength of maximum absorbance in the visible range, ring-closed isoform
Procedure: Absorbance at a PSS for selected compounds was measured at 2.0×10^−5 M in triglyme in the absence (full) or presence (+UV) of a UV blocking film with a UV cutoff wavelength of 370 nm (10% transmission at 370 nm), using simulated sunlight (QSUN solar simulator) as a light source, or a 365 nm light source; these PSS are reported in Tables 1.5. […] “Switch” refers to the ability (yes or no) of the compound to be reversibly converted under photochromic and electrochromic conditions between a ring-open isomer and ring-closed isomer.
A sensitivity index (SI) is a ratio of the PSS under 365 nm light to the PSS under full spectrum light (without UV blocking film). SI is an indicator of the sensitivity of the compound to the composition of the incident light (a change in the ratio of UV and visible components)—photochemical ring-opening is induced by a portion of the visible light spectrum.
Photostationary State (PSS) UV/Vis spectra are obtained using an OceanOptics™ Spectrophotometer until absorption in the visible region of the spectrum stabilizes. A 2×10^−5M solution of compound in solvent is prepared, and photofaded using visible light until absorption in the visible region of the spectrum stabilizes. The sample is then irradiated with simulated sunlight (QSUN SS-150 Solar Simulator with xenon arc lamp) until the absorption spectrum stabilizes. To obtain PSS in the presence of a UV blocking film, a second sample is prepared and irradiated as described, with a UV blocking film inserted in the light path when irradiating.

Row | Compound | Absorbance at PSS, 365 nm | sensitivity index | Absorbance at PSS, full | Absorbance at PSS, +UV | λ max
1 | Cc1csc(-c2cc(C3=C(c4cc(-c5cc(C)cs5)sc4-c4cc(C)cs4)C(F)(F)C(F)(F)C3(F)F)c(-c3cc(C)cs3)s2)c1 [S149, 3′,3″″-(perfluorocyclopent-1-ene-1,2-diyl)bis(4,4″-dimethyl-2,2′:5′,2″-terthiophene)] | 0.339 | 1.41 | 0.241 | 0.169 | 647
2 | COc1ccc2c(C3=C(c4c(-c5ccc(C)s5)oc5cc(OC)ccc45)C(F)(F)C(F)(F)C3(F)F)c(-c3ccc(C)s3)oc2c1 [S144, 3,3′-(perfluorocyclopent-1-ene-1,2-diyl)bis(6-methoxy-2-(5-methylthiophen-2-yl)benzofuran)] | 0.318 | 3.88 | 0.082 | 0.04 | 513
3 | CC(C)(C)c1ccc(-c2cc(C3=C(c4cc(-c5ccc(C(C)(C)C)s5)sc4-c4ccc(O)cc4)C(F)(F)C(F)(F)C3(F)F)c(-c3ccc(O)cc3)s2)s1 [S105, 4,4′-(4,4″-(perfluorocyclopent-1-ene-1,2-diyl)bis(5′-(tert-butyl)-[2,2′-bithiophene]-5,4-diyl))diphenol] | 0.272 | 1.38 | 0.197 | 0.134 | 647
4 | O=C(O)c1ccc(-c2cc(C3=C(c4cc(-c5ccc(C(=O)O)s5)sc4-c4ccc(C(=O)O)s4)C(F)(F)C(F)(F)C3(F)F)c(-c3ccc(C(=O)O)s3)s2)s1 [S024] | 0.102 | 5.10 | 0.02 | 0.018 | 650
5 | FC1(F)C(c2c(-c3ccccc3)sc3ccccc23)=C(c2c(-c3ccccc3)sc3ccccc23)C(F)(F)C1(F)F [S014, 3,3′-(perfluorocyclopent-1-ene-1,2-diyl)bis(2-phenylbenzo[b]thiophene)] | 0.011 | 2.75 | 0.004 | 0.006 | 525
6 | CC(C)(C)c1ccc(-c2oc3cc(O)ccc3c2C2=C(c3c(-c4ccc(C(C)(C)C)cc4)oc4cc(O)ccc34)C(F)(F)C(F)(F)C2(F)F)cc1 [S162, 3,3′-(perfluorocyclopent-1-ene-1,2-diyl)bis(2-(4-(tert-butyl)phenyl)benzofuran-6-ol)] | 0.398 | 3.34 | 0.119 | 0.06 | 520
7 | CC(C)(C)c1ccc(-c2sc(C(C)(C)C)cc2C2=C(c3cc(C(C)(C)C)sc3-c3ccc(C(C)(C)C)s3)C(F)(F)C(F)(F)C2(F)F)s1 [S073, 3,3′-(perfluorocyclopent-1-ene-1,2-diyl)bis(5,5′-di-tert-butyl-2,2′-bithiophene)] | 0.06 | 5.71 | 0.0105 | 0.006 | 550
8 | Cc1sc(-c2cc(C3=C(c4cc(-c5sc(C)c6c5OCCO6)sc4-c4sc(C)c5c4OCCO5)C(F)(F)C(F)(F)C3(F)F)c(-c3sc(C)c4c3OCCO4)s2)c2c1OCCO2 [S036] | 0.174 | 7.25 | 0.024 | 0.016 | 665
9 | c1ccc(-c2cc(-c3nc(-c4ccccc4)sc3-c3cc(-c4ccccc4)sc3-c3ccccc3)c(-c3ccccc3)s2)cc1 [S055, 4,5-bis(2,5-diphenylthiophen-3-yl)-2-phenylthiazole] | 0.191 | 4.55 | 0.042 | 0.008 | 640
10 | Cc1cc(-c2sc(-c3sc(C)c(C)c3C)cc2C2=C(c3cc(-c4sc(C)c(C)c4C)sc3-c3cc(C)c(C)s3)C(F)(F)C(F)(F)C2(F)F)sc1C [S148, 4′,4″″-(perfluorocyclopent-1-ene-1,2-diyl)bis(3,4,4″,5,5″-pentamethyl-2,2′:5′,2″-terthiophene)] | 0.244 | 1.63 | 0.15 | 0.092 | 650
11 | COc1ccc2c(C3=C(c4c(-c5ccc(-c6ccc(C(C)(C)C)s6)s5)oc5cc(OC)ccc45)C(F)(F)C(F)(F)C3(F)F)c(-c3ccc(-c4ccc(C(C)(C)C)s4)s3)oc2c1 [S152, 3,3′-(perfluorocyclopent-1-ene-1,2-diyl)bis(2-(5′-(tert-butyl)-[2,2′-bithiophen]-5-yl)-6-methoxybenzofuran)] | 0.263 | 3.81 | 0.069 | 0.06 | 522
12 | COc1ccc(-c2cc(C3=C(c4cc(-c5ccc(C#N)cc5)sc4-c4ccc(OC)cc4)C(F)(F)C(F)(F)C3(F)F)c(-c3ccc(C#N)cc3)s2)cc1 [S087, 4-(3-(2-(5-(4-cyanophenyl)-2-(4-methoxyphenyl)thiophen-3-yl)-3,3,4,4,5,5-hexafluorocyclopent-1-en-1-yl)-5-(4-methoxyphenyl)thiophen-2-yl)benzonitrile] | 0.209 | 1.92 | 0.109 | 0.055 | 628
13 | COc1cc2oc(-c3ccc(C(C)(C)C)cc3)c(C3=C(c4c(-c5ccc(C(C)(C)C)cc5)oc5cc(OC)c(OC)cc45)C(F)(F)C(F)(F)C3(F)F)c2cc1OC [S164, 3,3′-(perfluorocyclopent-1-ene-1,2-diyl)bis(2-(4-(tert-butyl)phenyl)-5,6-dimethoxybenzofuran)] | 0.546 | 2.32 | 0.235 | 0.134 | 554
14 | CCOCCOCCOCCOc1ccc2c(C3=C(c4c(-c5ccc(C(C)(C)C)cc5)oc5cc(OCCOCCOCCOCC)ccc45)C(F)(F)C(F)(F)C3(F)F)c(-c3ccc(C(C)(C)C)cc3)oc2c1 [S161, 3,3′-(perfluorocyclopent-1-ene-1,2-diyl)bis(2-(4-(tert-butyl)phenyl)-6-(2-(2-(2-ethoxyethoxy)ethoxy)ethoxy)benzofuran)] | 0.455 | 3.73 | 0.122 | 0.06 | 511
15 | N#Cc1ccc(-c2ccc(-c3cc(C4=C(c5cc(-c6ccc(-c7ccc(C#N)s7)s6)sc5-c5cccs5)C(F)(F)C(F)(F)C4(F)F)c(-c4cccs4)s3)s2)s1 [S037, 4″,4″″″-(perfluorocyclopent-1-ene-1,2-diyl)bis(([2,2′:5′,2″:5″,2″′-quaterthiophene]-5-carbonitrile))] | 0.442 | 1.18 | 0.375 | 0.355 | 680
16 | COc1ccc(-c2oc3ccc(OC)cc3c2C2=C(c3c(-c4ccc(OC)cc4)oc4ccc(OC)cc34)C(F)(F)C(F)(F)C2(F)F)cc1 [S083] | 0.167 | 7.26 | 0.023 | 0.008 | 550
17 | Cc1ccc(-c2oc3ccccc3c2C2=C(c3c(-c4ccc(C)s4)oc4ccccc34)C(F)(F)C(F)(F)C2(F)F)s1 [S137, 3,3′-(perfluorocyclopent-1-ene-1,2-diyl)bis(2-(5-methylthiophen-2-yl)benzofuran)] | 0.15 | 4.55 | 0.033 | 0.016 | 497
18 | FC1(F)C(c2cc(-c3ccc(/C=C/c4ccccc4)s3)sc2-c2cccs2)=C(c2cc(-c3ccc(/C=C/c4ccccc4)s3)sc2-c2cccs2)C(F)(F)C1(F)F [S038, (E)-4′,4″″-(perfluorocyclopent-1-ene-1,2-diyl)bis(5-((E)-styryl)-2,2′:5′,2″-terthiophene)] | 0.642 | 1.41 | 0.456 | 0.431 | 690
19 | FC1(F)C(c2cc(-c3ccccc3)sc2-c2ccccc2)=C(c2cc(-c3cccs3)sc2-c2cccs2)C(F)(F)C1(F)F [S005, 3′-(2-(2,5-diphenylthiophen-3-yl)-3,3,4,4,5,5-hexafluorocyclopent-1-en-1-yl)-2,2′:5′,2″-terthiophene] | 0.195 | 2.71 | 0.072 | 0.028 | 618
